# Test results from publication PMC10821025, “Bioprospection of Tenellins Produced by the Entomopathogenic Fungus Beauveria neobassiana” (Journal of Fungi, 2024).
# Where two headings read alike, the source gives them in different places.
# How the values were obtained:
# [1] = system: Acinetobacter baumanii [DSM 30008]; assay: Serial dilution assay (MIC); type: cell-based; conditions: Acinetobacter baumannii, DSM30008
# Description: (§1) All isolated compounds were assessed for their antimicrobial activity using a serial dilution assay over a concentration range from 67 to 0.5 µg/mL following the previously described protocols. In brief, the antimicrobial activity of all isolated metabolites was assessed by determining their minimum inhibitory concentration (MIC) against a range of different pathogens, including five fungal species: Candida albicans [DSM 1665], Mucor hiemalis [DSM 2656], Schizosaccharomyces pombe [DSM 70572], Rhodotorula glutinis [DSM 10134], and Wickerhamomyces anomalus [DSM 6766], as well as various Gram-positive: Staphylococcus aureus [DSM 346], Bacillus subtilis [DSM 10], Mycolicibacterium smegmatis [ATCC 700084], and Gram-negative bacteria: Acinetobacter baumanii [DSM 30008], Escherichia coli [DSM 1116], Chromobacterium violaceum [DSM 30191], and Pseudomonas aeruginosa [PA14]. In our experiments, gentamicin served as the positive control against most bacteria, while nystatin acted as the positive control against all fungi. For specific microorganisms, namely A. baumannii, B. subtilis, and M. smegmatis, ciprofloxacin, oxytetracycline, and kanamycin were used as positive controls, respectively.
# [2] = system: mouse fibroblasts (L-929); assay: Cytotoxicity assay, L929; type: cell-based; conditions: L929 (fibroblast), 5 days of incubation
# Description: (§2) The cytotoxicity of isolated compounds was determined as previously described over a concentration range between […] against two mammalian cell lines: mouse fibroblasts (L-929) and human endocervical adenocarcinoma (KB-3.1). […] Following 5 days of incubation, we determined the minimum concentration of the tested compounds required to achieve 50% growth inhibition, expressed as IC50 values.
# [3] = system: human endocervical adenocarcinoma (KB-3.1); assay: Cytotoxicity assay, KB3.1; type: cell-based; conditions: 5 days of incubation
# Description: as §2
# [4] = system: Bacillus subtilis [DSM 10]; assay: Serial dilution assay (MIC); type: cell-based
# Description: as §1
# [5] = system: Candida albicans [DSM 1665]; assay: Serial dilution assay (MIC); type: cell-based
# Description: as §1
# [6] = system: Escherichia coli [DSM 1116]; assay: Serial dilution assay (MIC); type: cell-based
# Description: as §1
# [7] = system: Mucor hiemalis [DSM 2656]; assay: Serial dilution assay (MIC); type: cell-based
# Description: as §1
# [8] = system: Mycolicibacterium smegmatis [ATCC 700084]; assay: Serial dilution assay (MIC); type: cell-based; conditions: for MIC: Mycolicibacterium smegmatis, ATCC700084
# Description: as §1
# [9] = system: Pseudomonas aeruginosa [PA14]; assay: Serial dilution assay (MIC); type: cell-based
# Description: as §1
# [10] = system: Staphylococcus aureus [DSM 346]; assay: Serial dilution assay (MIC); type: cell-based
# Description: as §1
# [11] = system: S. aureus (DSM 1104) biofilm formation; assay: Biofilm inhibition assay (Crystal Violet staining); type: cell-based, Staphylococcus aureus; conditions: for concentration below which biofilm inhibitory activity is lost: S. aureus biofilm, tested 125–7.8 µg/mL; for Biofilm inhibition (% ± SD): S. aureus (DSM 1104)
# Description: The compounds were evaluated for their ability to inhibit S. aureus (DSM 1104) biofilm formation, following the established procedure. Briefly, serially diluted compounds (125–7.8 µg/mL) were co-incubated with S. aureus in 96-well plates in CASO medium supplemented with 4% of glucose (see Supplementary Materials). Biofilm inhibition was assessed by using Crystal Violet staining after […], with microporenic acid A serving as a positive control and methanol as solvent control.
# Biofilm inhibition assays were condu cted acco rding to th e methodolo g y previousl y described (Soliga et al., 2021), targeting the inhibition of biofilm formation in Staphylococcus aureus […]
# S. aureus were cultured i n LB and CASO medium at 37 °C for 18 h, respect ivel y, in a shaker at 120 rpm after being thawed from a -20 °C stock solution. The culture's optical densit y at 600 nm (OD600) was measured and adjusted to a 0.1 McFarland standard in M63 minimal medium supplemented with necessar y nutrients and CASO medi um with 4% glucose for S. aureus, respectively. Microtiter plates were loaded with 150 µL of the bacterial suspension containing s eriall y diluted test compounds (7.8 -125 µg/m L) and incubated for 24 h at 37 °C. The evaluation of biofilm inhibition was performed by staining the biofilm with 0.1% cr ystal violet (CV). After staining, the plates were washed, and the biofilm dissolved in 95% ethanol. The absorbance of the dissolved biofilm was measured at 530 nm using a plat e reader. Negative control involved methanol (2.5%) while microporenic acid A at a concentration range of 7.8 to 125 µg/mL were used as the positive control for S. aureus (Chepkirui et al., 2018). All experiments were performed three times, and the standard deviation (SD) was maintained at or below 15% for S. aureus .
# Differences between sam ples and the control grou p were determined b y a t wo-tailed Student’s t-test. Statistical significan ce was defined as p < 0.01. Anal ysis was carri ed out using GraphPad Prism 9® (GraphPad Software, San Diego, CA, USA). […]
# [12] = system: Chromobacterium violaceum [DSM 30191]; assay: Serial dilution assay (MIC); type: cell-based
# Description: as §1
# [13] = system: lung cancer (A-549) cell line; assay: Cytotoxicity assay, A549; type: cell-based; conditions: Homo sapiens
# [14] = system: breast cancer (MCF-7) cell line; assay: Cytotoxicity assay, MCF-7; type: cell-based; conditions: Homo sapiens, MCF7, 120 h
# [15] = system: Rhodotorula glutinis [DSM 10134]; assay: Serial dilution assay (MIC); type: cell-based
# Description: as §1
# [16] = system: Schizosaccharomyces pombe [DSM 70572]; assay: Serial dilution assay (MIC); type: cell-based
# Description: as §1
# [17] = system: Wickerhamomyces anomalus [DSM 6766]; assay: Serial dilution assay (MIC); type: cell-based
# Description: as §1
# [18] = Homo sapiens, KB 3-1, 120 h, KB3.1 (endocervical adenocarcinoma)
# [19] = KB3.1 (endocervical adenocarcinoma)
# [20] = Staphylococcus aureus, DSM1104, read-out: Biofilm inhibition (% ± SD), S. aureus (DSM 1104), 62.5 µg/ml
# [21] = Staphylococcus aureus, DSM1104, read-out: Biofilm inhibition (% ± SD), S. aureus (DSM 1104), 125 µg/ml
smiles,measurement,setting,value
"O=C(O)c1cn(C2CC2)c2cc(N3CCNCC3)c(F)cc2c1=O [Ciprofloxacin, reference compound]",MIC,[1],0.52 µg/mL
"O=C(O)c1c(O)c(-c2ccc(O)cc2)cn(O)c1=O [Compound 1, Pretenellin C]",IC50 (µM),[2]; listed as pretenellin C (1),weak or no activity
same,IC50,"[2]; Mus musculus, L929, 120 h",> 37 µg/mL
same,IC50,"[3]; Homo sapiens, KB 3-1, 120 h, KB3.1 (ovary)",> 37 µg/mL
same,IC50 (µM),"[3]; KB3.1 (endocervical adenocarcinoma), listed as pretenellin C (1)",weak or no activity
same,MIC,"[4]; DSM10, read-out: MIC",> 67 µg/mL
same,MIC,"[5]; DSM1665, read-out: MIC",> 67 µg/mL
same,MIC,"[6]; DSM1116, read-out: MIC",> 67 µg/mL
same,MIC,"[7]; DSM2656, read-out: MIC",> 67 µg/mL
same,MIC,"[8]; Mycobacterium smegmatis, read-out: MIC",> 67 µg/mL
same,MIC,[9]; read-out: MIC,> 67 µg/mL
same,MIC,"[10]; DSM346, read-out: MIC",> 67 µg/mL
same,concentration below which biofilm inhibitory activity is lost,[11],31.3 µg/mL
same,inhibition at 31.25 µg/mL,"[11]; Staphylococcus aureus, DSM1104, S. aureus (DSM 1104), 31.25 µg/ml, read-out: Biofilm inhibition (% ± SD)",46 ± 9%
same,inhibition at 62.5 µg/mL,"[11]; Staphylococcus aureus, DSM1104, S. aureus (DSM 1104), 62.5 µg/ml, read-out: Biofilm inhibition (% ± SD)",63 ± 16%
same,inhibition at 125 µg/mL,"[11]; Staphylococcus aureus, DSM1104, S. aureus (DSM 1104), 125 µg/ml, read-out: Biofilm inhibition (% ± SD)",74 ± 5%
"CCC(C)/C=C(C)/C=C/C(=O)c1c(O)c(-c2ccc(O)cc2)c[nH]c1=O (stereo not drawn) [Compound 3, Pretenellin B]",IC50 (µM),[2],weak or no activity
same,IC50,"[2]; Mus musculus, L929, 120 h",48.2 µM
same,IC50,[3]; [18],20.2 µM
same,IC50 (µM),[3]; [19],weak or no activity
same,MIC,[4]; DSM10,66.6 µg/mL
same,MIC,[5]; DSM1665,> 67 µg/mL
same,MIC,[12]; DSM30191,> 67 µg/mL
same,MIC,[6]; DSM1116,> 67 µg/mL
same,MIC,[7]; DSM2656,> 67 µg/mL
same,MIC,[8],> 67 µg/mL
same,MIC,[9],> 67 µg/mL
same,MIC,[10]; DSM346,66.6 µg/mL
same,inhibitory activity on S. aureus biofilm formation (in words),[11]; 125–7.8 µg/mL,promising activities in a dose-dependent manner
same,Biofilm inhibition (% ± SD),"[11]; 7.8 µg/ml, listed as pretenellin B (3)",ca. 30%
same,inhibition at 7.8 µg/mL,"[11]; Staphylococcus aureus, DSM1104, read-out: Biofilm inhibition (% ± SD), S. aureus (DSM 1104), 7.8 µg/ml",37 ± 7%
same,inhibition at 15.62 µg/mL,"[11]; Staphylococcus aureus, DSM1104, read-out: Biofilm inhibition (% ± SD), S. aureus (DSM 1104), 15.62 µg/ml",52 ± 6%
same,inhibition at 31.25 µg/mL,"[11]; Staphylococcus aureus, DSM1104, read-out: Biofilm inhibition (% ± SD), S. aureus (DSM 1104), 31.25 µg/ml",79 ± 8%
same,inhibition at 62.5 µg/mL,[11]; [20],83 ± 6%
same,inhibition at 125 µg/mL,[11]; [21],83 ± 6%
"CCC(/C=C(C)/C=C/C(=O)c1c(O)c(-c2ccc(O)cc2)c[nH]c1=O)CO (stereo not drawn) [Compound 6, Pyridovericin]",IC50,[2],5.7 µM
same,IC50,"[2]; Mus musculus, L929, 120 h",4.9 to 6.8 µM
same,IC50,[3]; [18],4.9 to 6.8 µM
same,IC50,[3]; [19],4.9 µM
same,IC50,"[13]; 120 h, A549 (lung), 5 days of incubation, read-out: IC50",24100 nM
same,IC50,"[14]; MCF-7 (breast), 5 days of incubation, read-out: IC50",7300 nM
same,MIC,[4]; DSM10,66.6 µg/mL
same,MIC,[5]; DSM1665,> 67 µg/mL
same,MIC,[6]; DSM1116,> 67 µg/mL
same,MIC,[7]; DSM2656,> 67 µg/mL
same,MIC,[8],> 67 µg/mL
same,MIC,[9],> 67 µg/mL
same,MIC,[10]; DSM346,66.6 µg/mL
same,concentration below which biofilm inhibitory activity is lost,[11],62.5 µg/mL
same,inhibition at 62.5 µg/mL,[11]; [20],48 ± 5%
same,inhibition at 125 µg/mL,[11]; [21],64 ± 14%
"C/C(=C\c1csc(C)n1)[C@@H]1C[C@@H]2O[C@]2(C)CCC[C@H](C)[C@H](O)[C@@H](C)C(=O)C(C)(C)[C@@H](O)CC(=O)O1 [Epothilone B, reference compound]",IC50,"[13]; A549, 120 h, read-out: IC50, Positive Control Epothilone B (nM)",0.05 nM
same,IC50,"[14]; read-out: IC50, Positive Control Epothilone B (nM)",0.07 nM
"CNC(C)C1CCC(N)C(OC2C(N)CC(N)C(OC3OCC(C)(O)C(NC)C3O)C2O)O1 (stereo not drawn) [Gentamycin, reference compound]",MIC,"[12]; DSM30191, read-out: MIC",1.7 µg/mL
same,MIC,"[6]; DSM1116, read-out: MIC",0.42 µg/mL
same,MIC,[9]; read-out: MIC,0.21 µg/mL
same,MIC,"[10]; DSM346, read-out: MIC",0.21 µg/mL
"NC[C@H]1O[C@H](O[C@H]2[C@H](O)[C@@H](O[C@H]3O[C@H](CO)[C@@H](O)[C@H](N)[C@H]3O)[C@H](N)C[C@@H]2N)[C@H](O)[C@@H](O)[C@@H]1O [Kanymycin, reference compound]",MIC (µg/mL),[8]; Mycobacterium smegmatis,1.70 ^K µg/mL
"CC(C)=CCC/C(C)=C/CC/C(C)=C/CC/C(C)=C/CO[C@@H](C(=O)O)[C@H](CC(=O)O)C(=O)O [Microporenic acid A, reference compound]",Biofilm inhibition (% ± SD),[11]; 7.8 µg/ml,41 ± 9%
same,Biofilm inhibition (% ± SD),[11]; 15.62 µg/ml,70 ± 13%
same,Biofilm inhibition (% ± SD),[11]; 31.25 µg/ml,85 ± 1%
same,Biofilm inhibition (% ± SD),[11]; 62.5 µg/ml,84 ± 1%
same,Biofilm inhibition (% ± SD),[11]; 125 µg/ml,86 ± 0%
"C[C@@H]1[C@H](O)[C@@H](C)/C=C/C=C/CC/C=C/C=C/C=C/C=C/C(O[C@H]2O[C@H](C)[C@@H](O)[C@H](N)[C@@H]2O)CC2O[C@](O)(CC(O)C(O)CCC(O)CC(O)CC(O)CC(=O)O[C@H]1C)CC(O)C2C(=O)O (stereo partly drawn) [Nystatin, reference compound]",MIC (µg/mL),[5],8.3 ^N µg/mL
same,MIC (µg/mL),[7],8.30 ^N µg/mL
same,MIC (µg/mL),[15],4.20 ^N µg/mL
same,MIC (µg/mL),[16],4.20 ^N µg/mL
same,MIC (µg/mL),[17],16.6 ^N µg/mL
"CN(C)[C@@H]1C(O)=C(C(N)=O)C(=O)[C@@]2(O)C(O)=C3C(=O)c4c(O)cccc4[C@@](C)(O)[C@H]3[C@H](O)[C@@H]12 [Oxytetracycline, reference compound]",MIC,"[4]; DSM10, read-out: MIC",16.6 µg/mL
